Reference: patent US4973592A, “1,3-diazocycloalkenes as muscarinic receptor blocking agents” (Istituto de Angeli, priority 1987, dated 1990)
Where a name gives a salt, the structure may show the parent alone. Read-outs that look alike come from different tables or passages of the source.

Legend:
[1] = target: T1, isolated guinea pig ileum (bethanechol induced contractions) (Cavia porcellus, UniProt H0W1Z3); experiment: antispasmodic activity on isolated guinea pig ileum with bethanechol as spasmogen; design: species or system guinea pig (Dunkin Hartley); conditions: cumulative bethanechol 0.3-30 μM, antagonist 60 min before, Tyrode solution, 37° C.; KB from dose-ratio; read-out: Antispasmodic activity. Dissociation constants (KB) for bethanechol induced contractions in the guinea pig ileum
T1 construct: a 2 cm piece of terminal ileum was rapidly excised; from tissue; host or cells: guinea pig terminal ileum (Dunkin Hartley)

[2] = target: T2, muscarinic receptors of the cerebral cortex (Rattus norvegicus, UniProt P08482); experiment: biochemical; design: species or system male CD-COOBBS rats; conditions: read-out: Antimuscarinic effect. Dissociation constants (KD) for ^3 H-pirenzepine binding
T2 sequence (P08482 1-460): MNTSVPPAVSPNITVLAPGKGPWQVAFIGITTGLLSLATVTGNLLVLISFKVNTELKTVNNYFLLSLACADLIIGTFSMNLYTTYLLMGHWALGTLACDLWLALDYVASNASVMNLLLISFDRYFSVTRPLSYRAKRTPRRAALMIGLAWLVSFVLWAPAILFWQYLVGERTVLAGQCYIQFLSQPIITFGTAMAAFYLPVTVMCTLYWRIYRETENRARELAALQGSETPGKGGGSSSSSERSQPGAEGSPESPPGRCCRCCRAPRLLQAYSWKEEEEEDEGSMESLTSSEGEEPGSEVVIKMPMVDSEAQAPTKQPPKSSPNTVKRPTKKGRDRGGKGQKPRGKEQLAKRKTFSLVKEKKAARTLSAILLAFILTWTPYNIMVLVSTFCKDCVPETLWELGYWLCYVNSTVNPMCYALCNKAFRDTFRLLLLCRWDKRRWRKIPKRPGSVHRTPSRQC

[3] = competition against 0.5 nM ^3 H-pirenzepine, rat cerebral cortex homogenate, 45 min at 30° C., pH 7.4, corrected for radioligand occupancy shift

T1 sequence (H0W1Z3 1-590): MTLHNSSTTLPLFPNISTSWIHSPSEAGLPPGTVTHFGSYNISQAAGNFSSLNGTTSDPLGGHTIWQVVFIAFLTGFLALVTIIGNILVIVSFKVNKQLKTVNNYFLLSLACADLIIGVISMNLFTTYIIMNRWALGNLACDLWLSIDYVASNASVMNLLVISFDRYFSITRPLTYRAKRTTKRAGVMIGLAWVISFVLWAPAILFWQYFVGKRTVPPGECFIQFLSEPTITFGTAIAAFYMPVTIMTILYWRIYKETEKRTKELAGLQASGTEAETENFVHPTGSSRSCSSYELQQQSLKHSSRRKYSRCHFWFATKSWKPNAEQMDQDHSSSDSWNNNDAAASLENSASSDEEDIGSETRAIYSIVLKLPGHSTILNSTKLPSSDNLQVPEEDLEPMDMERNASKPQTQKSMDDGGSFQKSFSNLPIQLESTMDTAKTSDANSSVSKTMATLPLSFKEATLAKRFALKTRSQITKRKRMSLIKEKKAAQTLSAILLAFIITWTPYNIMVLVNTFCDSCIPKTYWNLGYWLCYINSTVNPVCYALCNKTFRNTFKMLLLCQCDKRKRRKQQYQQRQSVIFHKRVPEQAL

Kb [1] [nM] | Kd [2, 3] [nM] | Kd [2] [nM] | SMILES
3.4 | 7.4 |  | CC1=NCCN1CCCC(O)(c1ccccc1)C1CCCCC1 (stereo not drawn) [Compound 21, 1-(4-Phenyl-4-cyclohexyl-4-hydroxy)butyl-2-methyl-2-imidazoline hydrochloride]
1.5 | 5 |  | OC(CCCN1C=NCCC1)(c1ccccc1)C1CCCCC1 (stereo not drawn) [Compound 22, 1-(4-Phenyl-4-cyclohexyl-4-hydroxy)butyl-1,4,5,6-tetrahydropyrimidine hydrochloride]
6.2 | 14 |  | OC(CCN1C=NCC1)(c1ccccc1)C1CCCCC1 (stereo not drawn) [Compound 23, 1-(3-phenyl-3-cyclohexyl-3-hydroxy)propyl-2-imidazoline hydrochloride]

The next lines start with the compound.

SMILES | Kb [1] [nM] | Kd [2, 3] [nM] | Kd [2] [nM]
OC(CCN1C=NCCC1)(c1ccccc1)C1CCCCC1 (stereo not drawn) [Compound 1, 1-(3-Phenyl-3-cyclohexyl-3-hydroxy)propyl-1,4,5,6-tetrahydropyrimidine hydrochloride] | 1 | 4.2 | 
CC1=NCCN1CCC(O)(c1ccccc1)C1CCCCC1 (stereo not drawn) [Compound 2, 1-(3-Phenyl-3-cyclohexyl-3-hydroxy)propyl-2-methyl-2-imidazoline hydrochloride] | 1.7 | 3 | 
NC1=NCC(OC(=O)C2(C3CCCCC3)CCCCC2)CN1 (stereo not drawn) [Compound 15, 2-Amino-1,4,5,6-tetrahydropyrimidin-5-yl 1-cyclohexylcyclohexane-1-carboxylate formate] | 0.46 |  | 2.7
